Test results reported in ChEMBL document CHEMBL1201862, “PubChem BioAssay data set” (2004).
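Five compound concentrations were applied to cells in 96-well plates for 48 hours; endpoints were derived by simple linear interpolation of the resulting dose-response curve. GI50 is the concentration that inhibits growth by half.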 Calls of active or inactive are those of the source. No stated cut-off is given here; in the data, active = GI50 up to about 1.1 µM and inactive = higher.

Experiments:
Assay in all cases: DTP human tumour cell line panel, 48 h
[1] = test system: SNB-78
[2] = test system: RXF 631
[3] = test system: LXFL 529
[4] = test system: DLD-1
[5] = test system: DMS-114
[6] = test system: M19-MEL
[7] = test system: DMS-273
[8] = test system: HOP-18
[9] = test system: XF498

SMILES | GI50 [1] | GI50 [2] | GI50 [3] | GI50 [4] | GI50 [5] | GI50 [6] | GI50 [7] | GI50 [8] | GI50 [9]
CC#COP(=O)(OCC)OCC | > 100 µM (inactive) | > 100 µM (inactive) | > 100 µM (inactive) | > 100 µM (inactive) | > 100 µM (inactive) | > 100 µM (inactive) | – | – | –
COC(=O)C(Cc1nc2ccc(Cl)cc2nc1O)/C(=N\N)C(=O)Nc1cc(C)c(Cl)cc1S(=O)(=O)O (stereo not drawn) | > 100 µM (inactive) | – | > 100 µM (inactive) | > 100 µM (inactive) | 73.5 µM (inactive) | – | – | – | –
CC(C)(C)C1=CC(=C2C(=O)C(=O)c3ccccc3C2=O)C=C(C(C)(C)C)C1=O | > 100 µM (inactive) | – | 26.9 µM (inactive) | 36.6 µM (inactive) | 31.3 µM (inactive) | 75.3 µM (inactive) | 59.8 µM (inactive) | 36.2 µM (inactive) | –
C#Cc1ccccc1N1C(=O)C=CC1=O | > 100 µM (inactive) | – | > 100 µM (inactive) | > 100 µM (inactive) | > 100 µM (inactive) | > 100 µM (inactive) | – | – | –
C/C(=C1/CCCC2(N=NCC2c2ccccc2)C1=O)c1ccccc1 (stereo not drawn) | 25.4 µM (inactive) | – | 17.3 µM (inactive) | 38.3 µM (inactive) | 9.16 µM (inactive) | 22.3 µM (inactive) | 15.9 µM (inactive) | 51.1 µM (inactive) | 17.4 µM (inactive)
Cc1ccc(NC(=O)C(=O)C(C2C(C)CC(=O)C2CC(=O)O)[N+](=O)[O-])cc1 (stereo not drawn) | > 100 µM (inactive) | – | > 100 µM (inactive) | > 100 µM (inactive) | > 100 µM (inactive) | – | – | – | > 100 µM (inactive)
Fc1cccc2c1cc1ccc3cccc4ccc2c1c34 | > 100 µM (inactive) | – | > 100 µM (inactive) | > 100 µM (inactive) | – | > 100 µM (inactive) | > 100 µM (inactive) | > 100 µM (inactive) | > 100 µM (inactive)
Cc1cccc(C)c1N1C(=O)C(=O)C(c2nc3ccccc3s2)/C(=N\N)C1=O (stereo not drawn) | > 100 µM (inactive) | > 100 µM (inactive) | 40.8 µM (inactive) | > 100 µM (inactive) | 60.8 µM (inactive) | > 100 µM (inactive) | > 100 µM (inactive) | 49.7 µM (inactive) | –
Cc1nc2cc(N)c(F)cc2[nH]1 | > 100 µM (inactive) | – | > 100 µM (inactive) | > 100 µM (inactive) | > 100 µM (inactive) | > 100 µM (inactive) | > 100 µM (inactive) | – | > 100 µM (inactive)
Cc1ccc(C2=NO[C@@H]3C(=O)N(c4ccc(Cc5ccc(N6C(=O)[C@H]7C(c8ccc(C)cc8)=NO[C@H]7C6=O)cc5)cc4)C(=O)[C@H]23)cc1 | > 100 µM (inactive) | > 100 µM (inactive) | > 100 µM (inactive) | > 100 µM (inactive) | > 100 µM (inactive) | > 100 µM (inactive) | > 100 µM (inactive) | > 100 µM (inactive) | > 100 µM (inactive)
COc1ccc(C(=O)O/N=C2\CCCC\C2=C/c2ccccc2)cc1 | 34 µM (inactive) | > 100 µM (inactive) | > 100 µM (inactive) | > 100 µM (inactive) | 80.7 µM (inactive) | > 100 µM (inactive) | > 100 µM (inactive) | 51.5 µM (inactive) | 35.5 µM (inactive)
C/C(=N\NC(N)=S)c1ccc(C)cc1C | > 100 µM (inactive) | 91 µM (inactive) | 39.1 µM (inactive) | 56.8 µM (inactive) | – | 36.9 µM (inactive) | > 100 µM (inactive) | > 100 µM (inactive) | 43.1 µM (inactive)
C1OC1CN1CCN(CC2CO2)CC1 (stereo not drawn) | > 100 µM (inactive) | – | > 100 µM (inactive) | > 100 µM (inactive) | 12.8 µM (inactive) | > 100 µM (inactive) | 16.1 µM (inactive) | 66.7 µM (inactive) | > 100 µM (inactive)
Cc1ccccc1Cn1nc2ccccc2cc1=O | > 100 µM (inactive) | – | – | > 100 µM (inactive) | > 100 µM (inactive) | > 100 µM (inactive) | > 100 µM (inactive) | > 100 µM (inactive) | > 100 µM (inactive)
CC(C)C(=O)N[C@@H](C)C(=O)N(Cc1ccc2ccccc2c1)N=O | > 100 µM (inactive) | – | 71.9 µM (inactive) | > 100 µM (inactive) | 33.7 µM (inactive) | 97.7 µM (inactive) | 28.8 µM (inactive) | 0.057 µM (active) | > 100 µM (inactive)
O=C(Nc1nc2ncn(CCO)c2c(=S)[nH]1)c1ccccc1 | > 100 µM (inactive) | > 10 µM (inactive) | > 100 µM (inactive) | > 100 µM (inactive) | > 100 µM (inactive) | > 100 µM (inactive) | > 100 µM (inactive) | > 100 µM (inactive) | > 100 µM (inactive)
CCOC(=O)C1N(S(=O)(=O)c2ccc(C)cc2)CCC12c1ccccc1NC2c1ccc(OC)c(OC)c1 (stereo not drawn) | > 100 µM (inactive) | – | > 100 µM (inactive) | > 100 µM (inactive) | > 100 µM (inactive) | > 100 µM (inactive) | > 100 µM (inactive) | – | 79.8 µM (inactive)
O=C(CCC(=O)Nc1ccc(Cl)cc1)CC(=O)c1ccc2ccccc2c1 | > 100 µM (inactive) | > 100 µM (inactive) | > 100 µM (inactive) | > 100 µM (inactive) | > 100 µM (inactive) | > 100 µM (inactive) | > 100 µM (inactive) | > 100 µM (inactive) | –
O=C1C=C(O)C(=Cc2c(O)cc(O)cc2O)C(O)=C1 | > 100 µM (inactive) | > 100 µM (inactive) | > 100 µM (inactive) | > 100 µM (inactive) | > 100 µM (inactive) | > 100 µM (inactive) | > 100 µM (inactive) | > 100 µM (inactive) | > 100 µM (inactive)
CC(C)=CC(=O)CC(=O)C(=O)NCCNC(=O)C(=O)CC(=O)C=C(C)C | > 50 µM (inactive) | – | > 50 µM (inactive) | > 50 µM (inactive) | > 50 µM (inactive) | > 50 µM (inactive) | > 50 µM (inactive) | > 50 µM (inactive) | > 50 µM (inactive)
O=C1NC2=C(CCCCC/C2=N\O)C12CCCCCC2 | > 100 µM (inactive) | – | > 100 µM (inactive) | > 100 µM (inactive) | > 100 µM (inactive) | > 100 µM (inactive) | > 100 µM (inactive) | > 100 µM (inactive) | > 100 µM (inactive)
COC(=O)c1nn(-c2ccccc2)c(=O)cc1N=[N+]=[N-] | > 100 µM (inactive) | – | > 100 µM (inactive) | – | > 100 µM (inactive) | > 100 µM (inactive) | > 100 µM (inactive) | – | > 100 µM (inactive)
CCOC(=O)C(OCC1CC=CCC1)Sc1ccccc1 (stereo not drawn) | > 100 µM (inactive) | – | > 100 µM (inactive) | > 100 µM (inactive) | > 100 µM (inactive) | > 100 µM (inactive) | > 100 µM (inactive) | > 100 µM (inactive) | –
CCCC(=O)Nc1ccc(O)c2c1C1CCCCCC21 (stereo not drawn) | > 100 µM (inactive) | – | > 100 µM (inactive) | – | 50.2 µM (inactive) | > 100 µM (inactive) | > 100 µM (inactive) | > 100 µM (inactive) | 65 µM (inactive)
COC1[C@H](NC(=O)OC(C)(C)C)C(=O)N1Cc1ccccc1 (stereo partly drawn) | > 100 µM (inactive) | – | > 100 µM (inactive) | > 100 µM (inactive) | > 100 µM (inactive) | > 100 µM (inactive) | > 100 µM (inactive) | – | > 100 µM (inactive)
CC(C)NC(C)C(C)c1ccccc1 (stereo not drawn) | – | – | > 100 µM (inactive) | > 100 µM (inactive) | > 100 µM (inactive) | > 100 µM (inactive) | > 100 µM (inactive) | – | > 100 µM (inactive)
